According to patent US12180160B1, “1-(naphthalen-2-yloxy)-3-(piperidin-1-yl)propan-2-ol as an eco-friendly insecticidal agent against Spodoptera littoralis (boisd.)” (priority 2023, dated 2024):
Converted amounts (≈) assume the structure as drawn.

System: Spodoptera littoralis larvae (2nd and 4th instars)
Test: Insecticidal bioassay screening (castor leaf dip)
Assay type: in vivo
Settings: for Toxic ratio: 72 h, fenoxycarb's LC50/compound's LC50 × 100; for LC50 (ppm): after 72 h of treatment
Protocol: Five concentrations (200, 100, 50, 25, 12.5 ppm) were designed for this synthetic compound and the reference fenoxycarb compound as the dynamic ingredients based on ppm via diluting the commercial formulation.
In this experiment, castor leaves are immersed in each of the previously prepared concentrations of the components for 10 seconds and then left to dry for 60 minutes. Larvae of the second and fourth instars of each checked strain are prepared with treated leaves in gauze-covered glass containers for 72 hrs. An untreated control is made in which leaves are dipped in triton x-100 and distilled water only. Then the preserved leaves were removed & fresh, untreated leaves were provided for 72 hours. Three replicates (10 larvae each) were checked for each concentration. Daily inspection was carried out for all treatments and mortality percentages were recorded 3 days (72 hours) after treatment. The average mortality percentage was corrected employing Abbott's formula. The corrected mortality rate for each of the previously synthesized compounds is statistically calculated according to Finney (1970). Through this rate, the corresponding concentration test lines (LDP lines) are assessed. Fifty and ninety percent mortality are determined, and the regression values for the checked products were previously evaluated.

Row | Structure (SMILES) | Toxic ratio (2nd instar larvae) | Toxic ratio (4th instar larvae) | LC50 (Spodoptera littoralis, foliar) [µg/mL] | morphological effect on Spodoptera littoralis (FIGURE) (after administration of the compound) | activity against Spodoptera littoralis (in words) (compared with reference insecticide fenoxycarb) | LC50 (ppm) (2nd instar larvae of S. littoralis) | LC50 (ppm) (4th instar larvae of S. littoralis)
1 | OC(COc1ccc2ccccc2c1)CN1CCCCC1 (stereo not drawn) [Compound 1, 1-(naphthalen-2-yloxy)-3-(piperidin-1-yl)propan-2-ol] | 10.9 | 59.8 | 25 (≈ 87.7 µM) | morphological malformations | active against Spodoptera littoralis |  | 
2 | CCOC(=O)NCCOc1ccc(Oc2ccccc2)cc1 [Fenoxycarb, reference compound] | 100 | 1 |  |  |  | 2.73 | 43.231
